Reference: patent publication US8207155B2, “Sulfonyl-azetidin-3-yl-methylamine amide analogs as GlyTl inhibitors, methods for making same, and use of same in treating psychiatric disorders” (Vanderbilt University, priority 2009, dated 2012)

Biological target: T1, GlyT1 (Homo sapiens, UniProt P48067)
T1 construct: Human placental choriocarcinoma cells endogenously expressing GlyT1; endogenous in cells; host or cells: JAR human placental choriocarcinoma cells
T1 sequence (P48067 1-706): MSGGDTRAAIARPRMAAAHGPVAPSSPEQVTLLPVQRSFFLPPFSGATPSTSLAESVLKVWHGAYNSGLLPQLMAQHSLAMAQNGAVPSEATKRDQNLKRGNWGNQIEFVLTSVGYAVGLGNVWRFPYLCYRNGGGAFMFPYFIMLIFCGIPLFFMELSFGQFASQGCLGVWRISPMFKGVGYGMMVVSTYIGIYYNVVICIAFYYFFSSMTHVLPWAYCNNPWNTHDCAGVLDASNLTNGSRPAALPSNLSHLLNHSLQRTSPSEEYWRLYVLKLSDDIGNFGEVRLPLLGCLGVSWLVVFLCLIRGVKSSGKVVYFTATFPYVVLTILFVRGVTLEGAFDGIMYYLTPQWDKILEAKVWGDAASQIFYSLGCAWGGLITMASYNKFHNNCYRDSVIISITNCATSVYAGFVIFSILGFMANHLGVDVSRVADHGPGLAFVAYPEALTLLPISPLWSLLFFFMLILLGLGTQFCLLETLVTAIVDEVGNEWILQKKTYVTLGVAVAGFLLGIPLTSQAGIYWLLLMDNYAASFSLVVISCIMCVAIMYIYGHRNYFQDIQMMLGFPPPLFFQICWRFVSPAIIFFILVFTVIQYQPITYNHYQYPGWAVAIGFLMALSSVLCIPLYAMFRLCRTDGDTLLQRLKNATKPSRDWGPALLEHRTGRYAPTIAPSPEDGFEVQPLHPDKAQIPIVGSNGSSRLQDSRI
Test: GlyT1 [14C]-glycine uptake inhibition in human placental choriocarcinoma (JAR) cells
Format: cell-based
Details: inhibition of specific [14C]-glycine uptake; cells endogenously expressing GlyT1; value printed in pM; read-out: Potency (IC50)
Procedure: Human placental choriocarcinoma cells endogenously expressing GlyT1 can be cultured using standard conditions. Cells can then be grown at 37° C. in a humidified atmosphere 40-48 hours before the assay. Culture medium can be removed from the culture plate, and cells can be incubated with an amount of TB1A buffer with or without the compounds of the present invention for a sufficient period of time. Then an amount of [^14C]-glycine diluted with TB1A can be added to each well. After incubation the microplates can be sealed and counted. Non-specific uptake of [^14C]-glycine can be determined in the presence of unlabeled glycine. To determine potencies, a range of concentrations of the compounds of the present invention can be added to the cells, followed by the fixed concentration of [^14C]-glycine. The concentration of the present compound that inhibited half of the specific uptake of [^14C]glycine (IC50 value) can be determined from the assay data by non-linear curve fitting.

Q: `Cn1cnc(S(=O)(=O)N2CC(C(NC(=O)c3ccc(Cl)cc3Cl)c3ccccc3)C2)c1` (single isomer, unassigned) [Compound 3b-1, 2,4-dichloro-N-((1(1-methyl-1H-imidazol-4-ylsulfonyl)azetidin-3-yl)(phenyl)methyl)benzamide] was tested. Which IC50 did it give?
A: Its IC50 is 29 pM.

Same assay, conditions: inhibition of specific [14C]-glycine uptake; cells endogenously expressing GlyT1; values given in μM; read-out: Potency (IC50)

Q: Which IC50 does the source give for `CCCS(=O)(=O)N1CC(C(NC(=O)c2ccc(Cl)cc2Cl)c2ccccc2)C1` (single isomer, unassigned) [Compound 3a-1, 2,4-dichloro-N-(phenyl(1-(propylsulfonyl)azetidin-3-yl)methyl)benzamide] here?
A: Its IC50 is greater than 1e+07 pM.

Q: With `Cn1cnc(S(=O)(=O)N2CC(C(NC(=O)c3ccc(F)c(F)c3)c3ccccc3)C2)c1` (centres unmarked) [Compound 9i] as the compound, how does the IC50 read?
A: Its IC50 is 1e+06 pM.

Q: `Cn1cnc(S(=O)(=O)N2CC(C(NC(=O)c3ccccc3F)c3ccccc3)C2)c1` (centres unmarked) [Compound 9e] was tested. Which IC50 did it give?
A: Its IC50 is 1.1e+06 pM.

Q: `Cn1cnc(S(=O)(=O)N2CC(C(NC(=O)c3ccc(Cl)cc3Cl)C3CCCC3)C2)c1` (centres unmarked) [Compound 10e] was tested. Which IC50 did it give?
A: The IC50 was 1.6e+06 pM.

Q: `Cn1cnc(S(=O)(=O)N2CC(C(NC(=O)c3ccc(F)cc3)c3ccccc3)C2)c1` (centres unmarked) [Compound 9d] was tested. Which IC50 did it give?
A: The IC50 was greater than 1e+07 pM.

Q: Which IC50 does the source give for `Cn1cnc(S(=O)(=O)N2CC(C(NC(=O)c3cc(Cl)cc(Cl)c3)c3ccccc3)C2)c1` (centres unmarked) [Compound 9j] here?
A: Its IC50 is 1.5e+06 pM.

Same assay, conditions: inhibition of specific [14C]-glycine uptake; cells endogenously expressing GlyT1; values in nM; read-out: Potency (IC50)

Q: `Cn1cnc(S(=O)(=O)N2CC(C(NC(=O)c3ccccc3C(F)(F)F)c3ccccc3)C2)c1` (centres unmarked) [Compound 9g] was tested. Which IC50 did it give?
A: Its IC50 is 101000 pM.

Q: With `CC(C)CC(NC(=O)c1ccc(Cl)cc1Cl)C1CN(S(=O)(=O)c2cn(C)cn2)C1` (centres unmarked) [Compound 10f] as the compound, how does the IC50 read?
A: Its IC50 is 581000 pM.

Q: Which IC50 does the source give for `Cn1cnc(S(=O)(=O)N2CC(C(NC(=O)c3ccc(Cl)c(Cl)c3)c3ccccc3)C2)c1` (centres unmarked) [Compound 9c] here?
A: Its IC50 is 446000 pM.

Q: `Cn1cnc(S(=O)(=O)N2CC(C(NC(=O)c3ccc(Cl)cc3Cl)c3ccccc3)C2)c1` (single isomer, unassigned) [Compound 3b-2, 2,4-dichloro-N-((1(1-methyl-1H-imidazol-4-ylsulfonyl)azetidin-3-yl)(phenyl)methyl)benzamide] was tested. Which IC50 did it give?
A: The IC50 was 627000 pM.

Q: Which IC50 does the source give for `CCCC(NC(=O)c1ccc(Cl)cc1Cl)C1CN(S(=O)(=O)c2cn(C)cn2)C1` (centres unmarked) [Compound 10b] here?
A: The IC50 was 185000 pM.

Q: `Cn1cnc(S(=O)(=O)N2CC(C(NC(=O)c3c(F)cccc3F)c3ccccc3)C2)c1` (centres unmarked) [Compound 9f] was tested. Which IC50 did it give?
A: Its IC50 is 439000 pM.

Q: For `Cn1cnc(S(=O)(=O)N2CC(C(NC(=O)c3cccnc3Cl)c3ccccc3)C2)c1` (centres unmarked) [Compound 9k], which IC50 is on record?
A: The IC50 was 718000 pM.

Q: Which IC50 does the source give for `Cn1cnc(S(=O)(=O)N2CC(C(NC(=O)c3ccc(Cl)cc3)c3ccccc3)C2)c1` (centres unmarked) [Compound 9b] here?
A: Its IC50 is 334000 pM.

Q: For `Cn1cnc(S(=O)(=O)N2CC(C(NC(=O)c3ccc(Cl)cc3)c3ccccn3)C2)c1` (centres unmarked) [Compound 10i], which IC50 is on record?
A: The IC50 was 940000 pM.

Q: How did the IC50 turn out when `CC(C)C(NC(=O)c1ccc(Cl)cc1Cl)C1CN(S(=O)(=O)c2cn(C)cn2)C1` (centres unmarked) [Compound 10a] was run?
A: The IC50 was 394000 pM.

Q: How did the IC50 turn out when `Cn1cnc(S(=O)(=O)N2CC(C(NC(=O)c3ccccc3C(F)(F)F)c3ccccn3)C2)c1` (centres unmarked) [Compound 10h] was run?
A: Its IC50 is 256000 pM.

Q: Which IC50 does the source give for `CCCS(=O)(=O)N1CC(C(NC(=O)c2ccc(Cl)cc2Cl)c2ccccc2)C1` (centres unmarked) [Compound 3a, 2,4-dichloro-N-(phenyl(1-(propylsulfonyl)azetidin-3-yl)methyl)benzamide] here?
A: The IC50 was 730000 pM.

Q: How did the IC50 turn out when `Cn1cnc(S(=O)(=O)N2CC(C(NC(=O)c3ccc(F)cc3F)c3ccccc3)C2)c1` (centres unmarked) [Compound 9h] was run?
A: The IC50 was 454000 pM.

Q: Which IC50 does the source give for `Cn1cnc(S(=O)(=O)N2CC(C(NC(=O)c3ccc(Cl)cc3Cl)c3ccccc3)C2)c1` (centres unmarked) [Compound 3b, 2,4-dichloro-N-((1(1-methyl-1H-imidazol-4-ylsulfonyl)azetidin-3-yl)(phenyl)methyl)benzamide] here?
A: Its IC50 is 39000 pM.

Q: How did the IC50 turn out when `Cn1cnc(S(=O)(=O)N2CC(C(NC(=O)c3ccc(Cl)cc3Cl)C3CC3)C2)c1` (centres unmarked) [Compound 10d] was run?
A: The IC50 was 253000 pM.

Q: `CCCS(=O)(=O)N1CC(C(NC(=O)c2ccc(Cl)cc2Cl)c2ccccc2)C1` (single isomer, unassigned) [Compound 3a-2, 2,4-dichloro-N-(phenyl(1-(propylsulfonyl)azetidin-3-yl)methyl)benzamide] was tested. Which IC50 did it give?
A: Its IC50 is 627000 pM.

Q: With `Cn1cnc(S(=O)(=O)N2CC(C(NC(=O)c3ccccc3Cl)c3ccccn3)C2)c1` (centres unmarked) [Compound 10g] as the compound, how does the IC50 read?
A: Its IC50 is 356000 pM.

Q: How did the IC50 turn out when `Cn1cnc(S(=O)(=O)N2CC(C(NC(=O)c3ccccc3Cl)c3ccccc3)C2)c1` (centres unmarked) [Compound 9a] was run?
A: The IC50 was 133000 pM.

Q: For `Cn1cnc(S(=O)(=O)N2CC(C(NC(=O)c3ccc(Cl)cc3Cl)c3cccs3)C2)c1` (centres unmarked) [Compound 10c], which IC50 is on record?
A: The IC50 was 40000 pM.
